Literature values in article PMC7395068, “The evolution of strategies to minimise the risk of human drug-induced liver injury (DILI) in drug discovery and development” (Archives of Toxicology, 2020).
Like-named read-outs stand apart in the source and are kept apart here.

Assays:
[1] = cited from earlier work
[2] = system: THLE or HepG2 cells, isolated mitochondria, BSEP; conditions: cited from earlier work
[3] = cited from earlier work; remark: listed apart in the source
[4] = system: primary human hepatocytes, NIH3T3 fibroblasts, BSEP, CYP3A4; conditions: cited from earlier work
[5] = In vitro Assay, ref Schadt 2015

Row | Compound | DILI +VE (5-8), DILI -VE (-4) ([1]; ref Chen 2016) | DILI severity category ([1]; ref Chen 2016) | Partition Hybrid HRM Score ([2]; In vitro Assay, ref Aleo 2019) | Ro2 Hybrid HRM Score ([2]; In vitro Assay, ref Aleo 2019) | In vivo DILI ([3]; ref Aleo 2019) | further results
1 | Cc1nc(-c2ccc(OCC(C)C)c(C#N)c2)sc1C(=O)O [febuxostat] | +VE | vMost-DILI-Concern | +VE | +VE | +VE | 
2 | CCCNS(=O)(=O)Nc1ncnc(OCCOc2ncc(Br)cn2)c1-c1ccc(Br)cc1 [macitentan] |  |  | +VE | +VE | +VE | 
3 | Cc1nc(C)c2c(n1)N(Cc1ccc(-c3ccccc3-c3nnn[nH]3)cc1)C(=O)CC2 [tasosartan] |  |  | +VE | +VE |  | Cellular toxicity (3T3 cells) [4, 5]: -VE; Combined Assay [4, 5]: +VE; GSH adduct HML [4, 5]: -VE; Hepatocyte cellular toxicity [4, 5]: +VE; MitoTox 3T3 [4, 5]: -VE; TDI CYP3A4 [4, 5]: -VE; hBSEP inhibition [4, 5]: +VE
4 | N.N.[Cl][Pt][Cl] [cisplatin] |  |  |  | -VE |  | 
5 | O=C(COc1ccc(Cl)cc1)N1CCN(Cc2ccc3c(c2)OCO3)CC1 [fipexide] | +VE | vMost-DILI-Concern | +VE | +VE | +VE | 
6 | CN1CCC[C@@H]1CCO[C@](C)(c1ccccc1)c1ccc(Cl)cc1 [clemastine] | -VE | vNo-DILI-Concern | -VE | -VE | -VE | In vivo DILI ([3]; […]): -VE
7 | CCc1oc2ccccc2c1C(=O)c1ccc(O)cc1 [benzarone] | +VE | vMost-DILI-Concern | +VE | +VE | +VE | 
8 | CCOc1nc2cccc(C(=O)O)c2n1Cc1ccc(-c2ccccc2-c2nnn[nH]2)cc1 [candesartan] | +VE | vLess-DILI-Concern | -VE | -VE | +VE | 
9 | CCOC(=O)Nc1ccc(NCc2ccc(F)cc2)nc1N [Flupirtine (Kv7 hepatotoxic@400)] |  |  | +VE | +VE | +VE | 
10 | Cc1ccc(Nc2nccc(N(C)c3ccc4c(C)n(C)nc4c3)n2)cc1S(N)(=O)=O [pazopanib] |  |  | +VE | +VE |  | 
11 | CC(C(=O)O)c1ccc(N2CC=CC2)c(Cl)c1 (stereo not shown) [pirprofen] | +VE | vMost-DILI-Concern | +VE | -VE | +VE | In vivo DILI ([3]; […]): +VE
12 | C[C@]12CC[C@@H]3c4ccc(O)cc4CC[C@H]3[C@@H]1CC[C@@H]2O [estradiol] |  |  |  |  |  | DILI +VE (5-8), DILI -VE (-4) ([1]; in vivo): +VE; DILI severity category ([1]; in vivo): vLess-DILI-Concern; Partition Hybrid HRM Score [2]: -VE; Ro2 Hybrid HRM Score [2]: -VE
13 | COCCc1ccc(OCC(O)CNC(C)C)cc1 (stereo not shown) [metoprolol] |  |  | +VE | -VE |  | 
14 | NC(N)=Nc1nc(CSCCN/C=N/S(=O)(=O)c2ccc(Br)cc2)cs1 [ebrotidine] | +VE | vMost-DILI-Concern | +VE | +VE | +VE | 
15 | CC(C)(C)NC(=O)[C@@H]1CN(Cc2cccnc2)CCN1C[C@@H](O)C[C@@H](Cc1ccccc1)C(=O)N[C@H]1c2ccccc2C[C@H]1O [indinavir] |  |  |  |  |  | Partition Hybrid HRM Score [2]: +VE; Ro2 Hybrid HRM Score [2]: +VE
16 | CCc1oc2ccccc2c1C(=O)c1cc(I)c(O)c(I)c1 [benziodarone] | +VE | vMost-DILI-Concern | +VE | +VE | +VE | 
17 | Cc1nc2n(c(=O)c1CCN1CCC(c3noc4cc(F)ccc34)CC1)CCCC2O (stereo not shown) [paliperidone] | -VE | vNo-DILI-Concern | -VE | -VE | -VE | 
18 | O=C(CCCN1CCC(O)(c2ccc(Cl)cc2)CC1)c1ccc(F)cc1 [haloperidol] |  |  | -VE | -VE |  | 
19 | CCCCC(=O)N(Cc1ccc(-c2ccccc2-c2nnn[nH]2)cc1)[C@H](C(=O)O)C(C)C [valsartan] |  |  |  |  |  | DILI +VE (5-8), DILI -VE (-4) ([1]; in vivo): +VE; DILI severity category ([1]; in vivo): vLess-DILI-Concern; Ro2 Hybrid HRM Score [2]: +VE
20 | Nc1ccc(C(=O)O)c(O)c1 [4-aminosalicylic acid] |  |  |  |  |  | DILI +VE (5-8), DILI -VE (-4) ([1]; in vivo): +VE; DILI severity category ([1]; in vivo): vMost-DILI-Concern; Partition Hybrid HRM Score [2]: -VE; Ro2 Hybrid HRM Score [2]: -VE
21 | OC(CCN1CCCCC1)(c1ccccc1)C1CCCCC1 (stereo not shown) [trihexyphenidyl] | -VE | vNo-DILI-Concern | -VE | -VE | -VE | 
22 | Cc1ccc(/C(=C\CN2CCCC2)c2ccccn2)cc1 [triprolidine] |  |  | -VE | -VE |  | 
23 | CN1C[C@H](C(=O)N[C@]2(C)O[C@@]3(O)[C@@H]4CCCN4C(=O)[C@H](Cc4ccccc4)N3C2=O)C[C@@H]2c3cccc4[nH]cc(c34)C[C@H]21 [dihydroergotamine] | -VE | vNo-DILI-Concern |  |  | -VE | Partition Hybrid HRM Score [2]: -VE; Ro2 Hybrid HRM Score [2]: -VE
24 | O=C(O)COc1ccc(C(=O)c2cccs2)c(Cl)c1Cl [ticrynafen] |  |  | +VE | +VE | +VE | 
25 | CCCC1O[C@@H]2C[C@H]3[C@@H]4CCC5=CC(=O)C=C[C@]5(C)[C@H]4[C@@H](O)C[C@]3(C)[C@]2(C(=O)CO)O1 (stereo partly shown) [budesonide] | -VE | vNo-DILI-Concern |  |  |  | Cellular toxicity (3T3 cells) [4, 5]: +VE; Combined Assay [4, 5]: -VE; GSH adduct HML [4, 5]: +VE; Hepatocyte cellular toxicity [4, 5]: +VE; MitoTox 3T3 [4, 5]: -VE; TDI CYP3A4 [4, 5]: -VE; hBSEP inhibition [4, 5]: +VE; In vivo DILI ([3]; […]): -VE; In vivo DILI ([3]; ref Schadt 2015): -VE
26 | C=C(CC)C(=O)c1ccc(OCC(=O)O)c(Cl)c1Cl [ethacrynic acid] |  |  |  |  |  | Partition Hybrid HRM Score, In vitro Assay ([2]; Partition hybrid, ref Aleo 2019): +VE; Ro2 Hybrid HRM Score, In vitro Assay ([2]; Rule of Two hybrid, ref Aleo 2019): +VE
27 | O=C1CCc2ccc(OCCCCN3CCN(c4cccc(Cl)c4Cl)CC3)cc2N1 [aripiprazole] | -VE | Ambiguous DILI-concern |  |  |  | Cellular toxicity (3T3 cells) [4]: -VE; Combined Assay [4]: -VE; GSH adduct HML [4]: -VE; Hepatocyte cellular toxicity [4]: -VE; MitoTox 3T3 [4]: -VE; TDI CYP3A4 [4]: -VE; hBSEP inhibition [4]: -VE; In vivo DILI ([3]; ref Schadt 2015): -VE
28 | COC(=O)CCc1ccc(OCC(O)CNC(C)C)cc1 (stereo not shown) [esmolol] | -VE | vNo-DILI-Concern | +VE | -VE | -VE | 
29 | O=C(Nc1cccc2c(=O)cc(-c3nnn[nH]3)oc12)c1ccc(OCCCCc2ccccc2)cc1 [Pranlukast] |  |  | +VE | +VE | +VE | 
30 | Cn1c(=O)c2[nH]c(Br)nc2n(C)c1=O [pamabrom] | -VE | vNo-DILI-Concern | -VE | -VE | -VE | 
